Consider 2 compounds from patent US4208531A, “Synthetic aminoglycosides” (priority 1976, dated 1980).

Converted amounts (≈) assume the structure as drawn. Like-named read-outs stand apart in the source and are kept apart here.

Common to all, as to experiment: MIC, Steers agar-dilution method, Mueller-Hinton
Assay type in all cases: cell-based

Experiment [1] deals with Pseudomonas aeruginosa s.p. From the text: (§1) Illustrated below is a table showing the minimal inhibitory concentrations (MIC's) of Kanamycin A together with those of one of the trisaccharides synthesized (Example I) against a variety of Gram-positive and Gram-negative bacteria as obtained by the Steers agar-dilution method with Mueller-Hinton agar medium.
(§2) In vitro activity of Kanamycin A and compound (Example LI). MIC's in
(§3) MuellerHinton broth pH 7.2.

The test system of experiment [2] is Micrococcus pyogenes aureus 6539 P. Conditions: Staphylococcus aureus, AUREUS6539P.
Text: as §1, §2, §3

Experiment [3] concerns Proteus rettgeri. Conditions: Providencia rettgeri.
Text: as §1, §2, §3

For experiment [4], the system named is Proteus mirabilis.
Text: as §1, §2, §3

Experiment [5] concerns Escherichia coli R 1513. Conditions: R1513, MuellerHinton broth pH 7.2.
Text: as §1, §2, §3

Experiment [6] has as its system Staphylococcus pyogenes Smith A. Conditions: Staphylococcus aureus.
Text: as §1, §2, §3

Experiment [7] relates to Pseudomonas aeruginosa I.A.
Text: as §1, §2, §3

In experiment [8] the test system is Proteus morganii. Conditions: Morganella morganii.
Text: as §1, §2, §3

Experiment [9] concerns Pseudomonas aeruginosa D 15.
Text: as §1, §2, §3

In experiment [10] the test system is Salmonella sui-pestifer.
Text: as §1, §2, §3

The subject of experiment [11] is Salmonella tiphymurium.
Text: as §1, §2, §3

On to `NCC1OC(OC2C(N)CC(N)C(OC3OC(CO)C(O)C(N)C3O)C2O)C(O)C(O)C1O` (stereo not shown) [Kanamycin A], for which the MIC (as a rule, the least concentration at which growth counts as inhibited) in experiment [1] (Pseudomonas aeruginosa, pH 7.2) is 100 µg/mL (≈ 206 µM); in [2] (pH 7.2), 0.8 µg/mL (≈ 1.65 µM); in experiment [3] (pH 7.2) it was 0.4 µg/mL (≈ 0.826 µM); in experiment [4] (pH 7.2), 2 µg/mL (≈ 4.13 µM); in experiment [5], 100 µg/mL (≈ 206 µM); in experiment [6] (pH 7.2), 0.8 µg/mL (≈ 1.65 µM). For the same compound, the MIC in experiment [7] (Pseudomonas aeruginosa, pH 7.2) came to 100 µg/mL (≈ 206 µM); in experiment [8] (pH 7.2), 0.8 µg/mL (≈ 1.65 µM); in [9] (Pseudomonas aeruginosa, D15, pH 7.2) it was 25 µg/mL (≈ 51.6 µM); in [10] (Salmonella, pH 7.2) it was 32 µg/mL (≈ 66 µM); in [11] (Salmonella, pH 7.2) it was 100 µg/mL (≈ 206 µM).

On to `NCC1OC(OC2CCC(OC3C(N)CC(N)C(O)C3O)OC2CN)CCC1O` (stereo not drawn) [Example LI, 4-O-[4-O-(6-amino-2,3,6-trideoxy-α-O-erythro-hexopyranosyl)-6-amino-2,3,6-trideoxy-αO-erythro-hexopyranosyl]-2-deoxystreptamine disulphate], for which the MIC in experiment [1] (Pseudomonas aeruginosa s.p., MuellerHinton broth pH 7.2, read-out: MIC) came to 16 µg/mL; in experiment [2] (Micrococcus pyogenes aureus 6539 P, MuellerHinton broth pH 7.2, read-out: MIC), 0.4 µg/mL; in experiment [3] (Proteus rettgeri, MuellerHinton broth pH 7.2, read-out: MIC), 0.2 µg/mL; in [4] (MuellerHinton broth pH 7.2, read-out: MIC), 0.4 µg/mL; in [5] it was 32 µg/mL; in experiment [6] (Staphylococcus pyogenes Smith A, MuellerHinton broth pH 7.2, read-out: MIC) it was 0.4 µg/mL. Besides, the MIC was 32 µg/mL in [7] (Pseudomonas aeruginosa I.A., MuellerHinton broth pH 7.2, read-out: MIC); 0.2 µg/mL in experiment [8] (Proteus morganii, MuellerHinton broth pH 7.2, read-out: MIC); 8 µg/mL in experiment [9] (D15, Pseudomonas aeruginosa D 15, MuellerHinton broth pH 7.2, read-out: MIC); 32 µg/mL in experiment [10] (Salmonella sui-pestifer, MuellerHinton broth pH 7.2, read-out: MIC); 32 µg/mL in [11] (Salmonella tiphymurium, MuellerHinton broth pH 7.2, read-out: MIC).
